Measured values as given in patent US20160136229A1, “MATERIALS FOR POSITIVE CATHEPSIN B MODULATION AND METHODS OF USE FOR TREATING MILD COGNITIVE IMPAIRMENT (MCI), EARLY DEMENTIA, A-SYNUCLEINOPATHY, TRAUMATIC BRAIN INJURY, CARDIOMYOPATHY, EYE DISEASE AND SKIN DAMAGE” (University of North Carolina at Pembroke, priority 2013, published 2016).

Assays:
11-month Fischer rats = experiment: Exploratory habituation in novel field, Fischer rats; assay type: in vivo, rat; settings: 27 mg/kg daily, vs vehicle-treated rats
Experimental: FIG. 2. The cathepsin B modulatory compound PADK improved learning and memory in 11-month Fischer rats, a model of mild cognitive impairment (MCI) and early dementia. A classic passive avoidance task to assess memory utilized a bi-sectioned apparatus consisting of a brightly-lit compartment and a dark compartment separated by a small door. […] In this figure, the female rats were injected daily with vehicle or 27 mg/kg PADK. Following each morning's injection, the rats were placed individually into the bright compartment and, after 10 s, the door was opened through which the rats typically entered immediately (3 min total time in apparatus/rat/day). Panel A: On the seventh injection day, latency time before entering the opened doorway was measured (pre-shock bars, mean±SEM), after which the door was closed to contain the animal in the dark compartment. A mild foot shock of 0.6 mA, 2 s duration, was then administered to the contained rat via the floor grid. Following the next day's injections, rats were again placed in the bright compartment and latency times measured after the door was opened (post-shock bars). […] Brains were removed after the behavior studies in order to assess cathepsin B levels.
The animal groups were also tested across two days in the same novel field, and the number of grid crossings per 3-min period was measured to determine exploratory habituation.

GluR1 = experiment: Immunoblot of postsynaptic marker GluR1 in hippocampal homogenates of Fischer rats; assay type: in vivo, rat; settings: 27 mg/kg daily for 9 days; vs vehicle, p=0.0386
Experimental: FIG. 3. Lysosomal modulator PADK dramatically up-regulates active cathepsin B levels in middle-aged Fischer rats, a model of MCI. The female rats were injected daily with vehicle (veh) or 27 mg/kg PADK for 9 days. Brain regions were dissected, homogenates prepared, and equal protein aliquots were assessed by immunoblot to label the 30-kDa active form of cathepsin B as well as actin load controls (A). The hippocampal homogenate samples were also stained for the postsynaptic marker GluR1 to assess for synaptic recovery in correspondence to cathepsin B regulation (A, lower blots).
Brains were removed from the Fischer rats after the behavior studies in order to assess cathepsin B and synaptic marker levels. […] Cathepsin B immunoreactivity was increased 4- to 8-fold in hippocampal as well as neocortical homogenates, while non-lysosomal proteins remained unchanged (gel load controls). In addition to the correspondence with improved memory, there is evidence that the lysosomal modulation corresponds with synaptic recovery, assessing the postsynaptic marker GluR1 in hippocampus (FIG. 3A lower blots, and FIG. 3C). Without wishing to be bound by any scientific theory, the results support the hypothesis that lysosomal enhancement offsets the age-related cascade of microtubule destabilization, transport failure, synaptic decline, and cognitive impairment. […]

active cathepsin B = target: T1, active cathepsin B (Mus musculus, UniProt P10605); experiment: Active cathepsin B staining in PADK-treated mice; assay type: in vivo; settings: 18 mg/kg/d×9 days, ip, vs vehicle
T1 construct: from tissue; host or cells: brain and CNS regions of mice (PADK-treated mice, A53T transgenic and wild-type mice, C57BL/6 mice)
Experimental: (§1) FIG. 4. Enhancing lysosome efficiency with the cathepsin B modulator PADK leads to reductions of multiple types of proteinopathy-related accumulation events. […] Age-matched wild-type mice (wt) and 9-10-month mutant human APP mice, a model of early dementia, treated with or without PADK were assessed for the 4-kDa Δβ peptide, the active form of cathepsin B (act CB), and other proteins in hippocampal samples (C). Similar treatment groups used another APP mouse model at 20-22 months of age to measure clearance of APP carboxyterminal fragments APP-αCTF and APP-βCTF (D). Rat hippocampal slice cultures from the untreated control group (con) and slices treated with submicromolar Δβ42 (early tauopathy model) in the absence or presence of PADK (5 μM for 4 days) were assessed for phosphorylated tau (pTau) and other proteins (E). For a model of early α-synucleinopathy, human A53T α-synuclein transgenic mice, at 7 months old, were studied with or without PADK treatment and assessed for human α-synuclein (α-syn) in TX-100 extracts of hippocampus and for other proteins in hippocampal homogenates (F). Plotted data (±SEM) were compared to neighboring vehicle groups by unpaired t-tests: *p=0.02, **p<0.01, ***p<0.001. APPswind and APP-PS1 mice are described in Butler et al., (2011), the entire content of which is hereby incorporated herein by reference.

[1] = tested on: phosphorylated tau (pTau); experiment: pTau in Aβ42-treated rat hippocampal slice cultures (early tauopathy model); assay type: cell-based; settings: 5 μM for 4 days
Experimental: as §1, with “reference. […]” for “reference.”

[2] = tested on: GluR1, GluR4, synaptophysin, and synapsin II; experiment: Synaptic marker immunoblot in hippocampal homogenates of A53T mice; assay type: in vivo, mouse; settings: A53T mice injected daily for 11 days
Experimental: FIG. 7. The cathepsin B modulator PADK promotes synaptic integrity in the model of early α-synucleinopathy. The A53T transgenic and wildtype (wt) mice were injected daily with PADK or vehicle for 11 days. […] Mean GluR1 immunoreactivities±SEM are shown (B); post hoc test compared to vehicle-treated transgenics: *p<0.05.
Lysosomal enhancement also promoted protein clearance and synaptic protection in the Parkinson's disease transgenic mouse model expressing mutant A53T human α-synuclein (FIG. 4E). As in the other proteinopathy models, the reduction in human α-synuclein corresponded with active CatB levels that were increased 3-6 fold in brains of the PADK-treated A53T mice. […] The A53T mice were used at 7-8 months of age and behavioral studies confirmed the early α-synucleinopathy was pre-symptomatic, although a subtle change in anxiety behavior was detected (FIG. 5). PADK-mediated cathepsin B modulation was evident throughout the CNS, and the enhanced levels of the enzyme's active form corresponded with improved clearance of α-synuclein (FIG. 6) and recovery of several synaptic markers (FIG. 7A).

bacterial = experiment: Bacterial cytotoxicity test; assay type: cell-based; settings: tested at up to a 1000 times the IC50 of the toxin mitomycin C

T1 sequence (P10605 80-333 limits assumed): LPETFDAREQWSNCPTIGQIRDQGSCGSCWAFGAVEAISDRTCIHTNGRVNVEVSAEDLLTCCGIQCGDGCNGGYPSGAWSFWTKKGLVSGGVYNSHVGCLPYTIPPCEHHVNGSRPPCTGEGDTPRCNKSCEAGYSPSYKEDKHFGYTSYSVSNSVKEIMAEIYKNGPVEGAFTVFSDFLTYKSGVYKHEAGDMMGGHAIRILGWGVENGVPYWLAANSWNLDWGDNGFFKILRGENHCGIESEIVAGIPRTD

C[C@H](NC(=O)[C@H](Cc1ccccc1)NC(=O)OCc1ccccc1)C(=O)C=[N+]=[N-] [PADK, N-carbobenzyloxy-L-phenylalanyl-L-alanyl-diazomethylketone]
grid crossings per 3-min period, day 1 (11-month Fischer rats): No significant difference
exploratory habituation, second day (11-month Fischer rats; P<0.05): improved habituation
GluR1 levels in hippocampus (GluR1): increased
levels of active cathepsin B (active cathepsin B): increased levels of active cathepsin B
pTau accumulation [1]: significant decrease
synaptic protection [1]: evidence of synaptic protection
levels of synaptic markers GluR1, GluR4, synaptophysin, and synapsin II [2]: improved levels
bacterial cytotoxicity (bacterial): did not cause bacterial cytotoxicity
